Assay results reported in patent publication US12227501B2, “3-amino-2-[2-(acylamino)pyridin-4-yl]-1,5,6,7-tetrahydro-4h-pyrrolo[3,2-c]pyridin-4-one as CSNK1 inhibitors” (Bayer Aktiengesellschaft, priority 2019, dated 2025).
Several values for one entry are separate records, joined by “and”; a condition that tells them apart may be missing. Equal values may be shown once. Where a name gives a salt, the structure may show the parent alone. Read-outs that look alike come from different tables or passages of the source.

Columns and labels:
Type in all cases: biochemical
[1] = biological target: wild-type Epidermal Growth Factor Receptor (EGFR) (Homo sapiens (Human), UniProt P00533); test: WT-EGFR Kinase Assay (TR-FRET, 2 mM ATP)
wild-type Epidermal Growth Factor Receptor (EGFR), sequence (P00533 669-1210): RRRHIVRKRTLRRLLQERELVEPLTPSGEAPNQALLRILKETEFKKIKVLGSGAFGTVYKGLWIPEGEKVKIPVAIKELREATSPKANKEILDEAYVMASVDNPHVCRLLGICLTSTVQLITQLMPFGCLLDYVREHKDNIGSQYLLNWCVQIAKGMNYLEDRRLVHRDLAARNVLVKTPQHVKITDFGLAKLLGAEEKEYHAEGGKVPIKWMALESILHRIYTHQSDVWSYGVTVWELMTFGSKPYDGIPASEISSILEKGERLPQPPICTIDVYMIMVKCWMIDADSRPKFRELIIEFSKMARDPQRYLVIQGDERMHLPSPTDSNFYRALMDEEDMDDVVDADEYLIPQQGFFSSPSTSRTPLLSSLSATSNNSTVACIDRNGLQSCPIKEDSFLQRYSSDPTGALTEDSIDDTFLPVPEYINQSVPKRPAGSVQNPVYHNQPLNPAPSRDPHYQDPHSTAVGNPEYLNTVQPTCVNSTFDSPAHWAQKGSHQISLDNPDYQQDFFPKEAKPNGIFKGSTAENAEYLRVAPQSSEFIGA

human CSNK1A1 [2] = biological target: T1, human CSNK1A1 (Homo sapiens (Human), UniProt P48729); test: CSNK1A1 High ATP Assay (ADP-Glo, 1 mM ATP); conditions: read-out: CSNK1A1 high ATP assay IC50 [mol/l] (median)
T1 sequence (P48729 whole entry): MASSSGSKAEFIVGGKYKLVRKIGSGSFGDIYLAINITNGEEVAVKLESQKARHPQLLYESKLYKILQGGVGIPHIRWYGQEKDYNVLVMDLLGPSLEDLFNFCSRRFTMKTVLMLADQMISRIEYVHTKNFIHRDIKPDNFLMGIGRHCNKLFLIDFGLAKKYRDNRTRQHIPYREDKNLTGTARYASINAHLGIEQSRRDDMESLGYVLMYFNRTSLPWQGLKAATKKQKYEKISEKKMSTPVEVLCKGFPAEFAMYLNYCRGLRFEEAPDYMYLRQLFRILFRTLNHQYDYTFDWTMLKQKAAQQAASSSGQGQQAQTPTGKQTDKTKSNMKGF
Protocol: CSNK1A1-inhibitory activity of compounds of the present invention in presence of 1 mM adenosine-tri-phosphate (ATP) was quantified employing the CSNK1A1-high-ATP-assay as described in the following paragraphs. In essence, the enzyme activity is measured by quantification of the adenosine-di-phosphate (ADP), which is generated as a co-product of the enzyme reaction, via the “ADP-Glo™ Kinase Assay” kit from the company Promega. This detection system works as follows: In a first step the ATP not consumed in the kinase reaction is quantitatively converted to cAMP employing an adenylate cyclase (“ADP-Glo-reagent”), then the adenylate cyclase is stopped and the ADP generated in the kinase reaction converted to ATP which generates in a luciferase-based reaction a glow-luminescence signal (“Kinase Detection Reagent”).
Recombinant fusion protein of N-terminal Glutathion-S-Transferase (GST) and full-length human CSNK1A1, expressed by baculovirus infected insect cells and purified via Glutathion affinity chromatography, was purchased from Life Technologies (product no. PV4174) and used as enzyme. As substrate for the kinase reaction the biotinylated peptide biotin-Ahx-KRRRAL-pS-VASLPGL (C-terminus in amide form) was used which can be purchased e.g. from the company Biosyntan (Berlin-Buch, Germany).
For the assay 50 nl of a 100 fold concentrated solution of the test compound in DMSO was pipetted into a white low volume 384-well microtiter plate (Greiner Bio-One, Frickenhausen, Germany), 2 μL of a solution of CSNK1A1 in aqueous assay buffer [50 mM HEPES pH 7.5, 10% (v/v) glycerol, 10 mM MgCl2, 50 mM NaCl, 1 mM dithiothreitol, 0.01% (w/v) bovine serum albumin, 0.01% (v/v) Triton X-100] were added and the mixture was incubated for 15 min at 22° C. to allow pre-binding of the test compounds to the enzyme before the start of the kinase reaction. […] The concentration of CSNK1A1 was adjusted depending of the activity of the enzyme lot and was chosen appropriate to have the assay in the linear range, a typical concentration is about 0.4 ng/μL. The reaction was stopped by the addition of 2.5 μL of “ADP-Glo-reagent” (1:1.5 fold diluted with water) and the resulting mixture was incubated at 22° C. for 1 h to convert the ATP not consumed in the kinase reaction completely […]. Subsequently 2.5 μL of the “kinase detection reagent” (1.2 fold more concentrated than recommended by the producer) were added, the resulting mixture was incubated at 22° C. for 1 h and then the luminescence measured with a suitable measurement instrument (e.g. Viewlux™ from Perkin-Elmer). The amount of emitted light was taken as a measure for the amount of ADP generated and thereby for the activity of the CSNK1A1.

human CSNK1A1 [3] = biological target: T1, human CSNK1A1; test: CSNK1A1 Assay 2 (ADP-Glo, 1 μM ATP); conditions: substrate biotin-Ahx-KRRRAL-pS-VASLPGL, read-out: CSNK1A1 Assay 2 IC50 [mol/l] (median)
Protocol: CSNK1A1-inhibitory activity of compounds of the present invention in presence of 1 μM adenosine-tri-phosphate (ATP) was quantified employing the CSNK1A1 assay as described in the following paragraphs. In essence, the enzyme activity is measured by quantification of the adenosine-di-phosphate (ADP), which is generated as a co-product of the enzyme reaction, via the “ADP-Glo™ Kinase Assay” kit from the company Promega. This detection system works as follows: In a first step the ATP not consumed in the kinase reaction is quantitatively converted to cAMP employing an adenylate cyclase (“ADP-Glo-reagent”), then the adenylate cyclase is stopped and the ADP generated in the kinase reaction converted to ATP which generates in a luciferase-based reaction a glow-luminescence signal (“Kinase Detection Reagent”). Recombinant fusion protein of N-terminal Glutathion-S-Transferase (GST) and full-length human CSNK1A1, expressed by baculovirus infected insect cells and purified via Glutathion affinity chromatography, was purchased from Life Technologies (product no. PV4174) and used as enzyme. As substrate for the kinase reaction the biotinylated peptide biotin-Ahx-KRRRAL-pS-VASLPGL (C-terminus in amide form) was used which can be purchased e.g. from the company Biosyntan (Berlin-Buch, Germany).
For the assay 50 nl of a 100 fold concentrated solution of the test compound in DMSO was pipetted into a white 1536-well microtiter plate (Greiner Bio-One, Frickenhausen, Germany), 2 μL of a solution of CSNK1A1 in aqueous assay buffer [50 mM HEPES pH 7.5, 10% (v/v) glycerol, 10 mM MgCl2, 50 mM NaCl, 1 mM dithiothreitol, 0.01% (w/v) bovine serum albumin, 0.01% (v/v) Triton X-100] were added and the mixture was incubated for 15 min at 22° C. to allow pre-binding of the test compounds to the enzyme before the start of the kinase reaction. […] The concentration of CSNK1A1 was adjusted depending of the activity of the enzyme lot and was chosen appropriate to have the assay in the linear range, a typical concentrations are about 0.0375 ng/μL. The reaction was stopped by the addition of 2.5 μL of “ADP-Glo-reagent” (1:1.5 fold diluted with water) and the resulting mixture was incubated at 22° C. for 1 h to convert the ATP not consumed in the kinase reaction completely […]. Subsequently 2.5 μL of the “kinase detection reagent” (1.2 fold more concentrated than recommended by the producer) were added, the resulting mixture was incubated at 22° C. for 1 h and then the luminescence measured with a suitable measurement instrument (e.g. Viewlux™ from Perkin-Elmer). The amount of emitted light was taken as a measure for the amount of ADP generated and thereby for the activity of the CSNK1A1.

human CSNK1D = human CSNK1D (Homo sapiens (Human), UniProt P48730); test: CSNK1D Assay (ADP-Glo, 1 μM ATP); conditions: read-out: CSNK1D IC50 [mol/l] (median)
human CSNK1D, sequence (P48730 whole entry): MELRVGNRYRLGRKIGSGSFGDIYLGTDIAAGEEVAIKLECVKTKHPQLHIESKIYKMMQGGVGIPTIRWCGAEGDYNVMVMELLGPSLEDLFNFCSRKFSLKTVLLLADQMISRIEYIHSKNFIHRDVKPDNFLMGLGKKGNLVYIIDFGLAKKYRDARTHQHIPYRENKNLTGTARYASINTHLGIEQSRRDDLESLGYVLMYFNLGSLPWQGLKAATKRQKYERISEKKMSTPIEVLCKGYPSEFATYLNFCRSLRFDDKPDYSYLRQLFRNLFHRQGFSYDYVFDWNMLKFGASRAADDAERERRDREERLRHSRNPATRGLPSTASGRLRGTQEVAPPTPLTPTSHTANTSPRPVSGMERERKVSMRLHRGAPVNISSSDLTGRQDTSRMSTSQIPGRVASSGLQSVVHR
Protocol: CSNK1 D-inhibitory activity of compounds of the present invention in presence of 1 μM adenosine-tri-phosphate (ATP) was quantified employing the CSNK1D assay as described in the following paragraphs. In essence, the enzyme activity is measured by quantification of the adenosine-di-phosphate (ADP), which is generated as a co-product of the enzyme reaction, via the “ADP-Glo™ Kinase Assay” kit from the company Promega. This detection system works as follows: In a first step the ATP not consumed in the kinase reaction is quantitatively converted to cAMP employing an adenylate cyclase (“ADP-Glo-reagent”), then the adenylate cyclase is stopped and the ADP generated in the kinase reaction converted to ATP which generates in a luciferase-based reaction a glow-luminescence signal (“Kinase Detection Reagent”). Recombinant fusion protein of N-terminal Glutathion-S-Transferase (GST) and full-length human CSNK1D, expressed by baculovirus infected insect cells and purified via Glutathion affinity chromatography, was purchased from Life Technologies (product no. PV3665) and used as enzyme. As substrate for the kinase reaction the biotinylated peptide Btn-Ahx-[…] (C-terminus in amide form) was used which can be purchased e.g. from the company Biosyntan (Berlin-Buch, Germany).
For the assay 50 nl of a 100 fold concentrated solution of the test compound in DMSO was pipetted into a white 1536-well microtiter plate (Greiner Bio-One, Frickenhausen, Germany), 2 μL of a solution of CSNK1D in aqueous assay buffer [50 mM HEPES pH 7.5, 10% (v/v) glycerol, 10 mM MgCl2, 50 mM NaCl, 1 mM dithiothreitol, 0.01% (w/v) bovine serum albumin, 0.01% (v/v) Triton X-100] were added and the mixture was incubated for 15 min at 22° C. to allow pre-binding of the test compounds to the enzyme before the start of the kinase reaction. […] The concentration of CSNK1 D was adjusted depending of the activity of the enzyme lot and was chosen appropriate to have the assay in the linear range, a typical concentration is about 0.5 ng/μL. The reaction was stopped by the addition of 2.5 μL of “ADP-Glo-reagent” (1:1.5 fold diluted with water) and the resulting mixture was incubated at 22° C. for 1 h to convert the ATP not consumed in the kinase reaction completely […]. Subsequently 2.5 μL of the “kinase detection reagent” (1.2 fold more concentrated than recommended by the producer) were added, the resulting mixture was incubated at 22° C. for 1 h and then the luminescence measured with a suitable measurement instrument (e.g. Viewlux™ from Perkin-Elmer). The amount of emitted light was taken as a measure for the amount of ADP generated and thereby for the activity of the CSNK1D.

[4] = EGFR Wildtyp- 2 mM ATP IC50 [mol/l] (median)
[5] = read-out: EGFR Wildtyp- 2 mM ATP IC50 [mol/l] (median)

SMILES | IC50 [1, 4] | IC50 (human CSNK1A1 [2]) | IC50 (human CSNK1A1 [3]) | IC50 [1, 5] | IC50 (human CSNK1D)
CN1CCc2[nH]c(-c3ccnc(NC(=O)C(CCN4CCOCC4)c4ccccc4)c3)c(Nc3ccccc3)c2C1=O (single isomer, unassigned) [Example 31, N-[4-(3-anilino-5-methyl-4-oxo-4,5,6,7-tetrahydro-1H-pyrrolo[3,2-c]pyridin-2-yl)pyridin-2-yl]-4-(morpholin-4-yl)-2-phenylbutanamide] | > 20000 nM | 249 nM | 3.85 nM |  | 
Cc1ccccc1Nc1c(-c2ccnc(NC(=O)Cc3ccc(F)cc3)c2)[nH]c2c1C(=O)NC(C)(C)C2 [Example 113, N-{4-[6,6-dimethyl-3-(2-methylanilino)-4-oxo-4,5,6,7-tetrahydro-1H-pyrrolo[3,2-c]pyridin-2-yl]pyridin-2-yl}-2-(4-fluorophenyl)acetamide] | > 5710 nM |  |  |  | 
CN1CCc2[nH]c(-c3ccnc(NC(=O)C(CCN4CCOCC4)c4ccccc4)c3)c(Nc3ccccc3)c2C1=O (single isomer, unassigned) [Example 32, N-[4-(3-anilino-5-methyl-4-oxo-4,5,6,7-tetrahydro-1H-pyrrolo[3,2-c]pyridin-2-yl)pyridin-2-yl]-4-(morpholin-4-yl)-2-phenylbutanamide] |  | 4560 nM | 72.2 nM | > 20000 nM | 
CN1CCc2[nH]c(-c3ccnc(NC(=O)C(CC(F)F)c4ccccc4)c3)c(Nc3ccccc3)c2C1=O (single isomer, unassigned) [Example 34, N-[4-(3-anilino-5-methyl-4-oxo-4,5,6,7-tetrahydro-1H-pyrrolo[3,2-c]pyridin-2-yl)pyridin-2-yl]-4,4-difluoro-2-phenylbutanamide] | > 20000 nM | 16.5 nM | 2.68 nM |  | 
CN1C(=O)c2c([nH]c(-c3ccnc(NC(=O)C(CC(F)F)c4ccc(F)cc4)c3)c2Nc2ccccc2)CC12CCC2 (single isomer, unassigned; enantiomer 1) [Example 161, (−)-N-[4-(3′-anilino-5′-methyl-4′-oxo-1′,4′,5′,7′-tetrahydrospiro[cyclobutane-1,6′-pyrrolo[3,2-c]pyridin]-2′-yl)pyridin-2-yl]-4,4-difluoro-2-(4-fluorophenyl)butanamide (Enantiomer 1)] | > 20000 nM | > 20000 nM and 19100 nM and 10600 nM and 14600 nM |  |  | 360 nM
CN1CCc2[nH]c(-c3ccnc(NC(=O)Cc4ccc(N(C)C)cc4)c3)c(Nc3ccccc3)c2C1=O [Example 84, N-[4-(3-anilino-5-methyl-4-oxo-4,5,6,7-tetrahydro-1H-pyrrolo[3,2-c]pyridin-2-yl)pyridin-2-yl]-2-[4-(dimethylamino)phenyl]acetamide] |  | 217 nM | 2.64 nM |  | 8.5 nM
CC1(C)Cc2[nH]c(-c3ccnc(NC(=O)Cc4ccc(F)cc4)c3)c(Nc3cccc(F)n3)c2C(=O)N1 [Example 127, 2-(4-fluorophenyl)-N-(4-{3-[(6-fluoropyridin-2-yl)amino]-6,6-dimethyl-4-oxo-4,5,6,7-tetrahydro-1H-pyrrolo[3,2-c]pyridin-2-yl}pyridin-2-yl)acetamide-1,1′,1″-phosphoryltripyrrolidine salt] | 16900 nM |  |  |  | 
CN1CCc2[nH]c(-c3ccnc(NC(=O)C(CC(F)F)c4ccccc4)c3)c(Nc3ccccc3)c2C1=O (single isomer, unassigned) [Example 35, N-[4-(3-anilino-5-methyl-4-oxo-4,5,6,7-tetrahydro-1H-pyrrolo[3,2-c]pyridin-2-yl)pyridin-2-yl]-4,4-difluoro-2-phenylbutanamide] | 14800 nM | 705 nM | 20.5 nM |  | 
CC(C(=O)Nc1cc(-c2[nH]c3c(c2Nc2ccccc2)C(=O)NC(C)(C)C3)ccn1)c1ccc(F)cc1 (single isomer, unassigned; (+)) [Example 40, (+)-N-[4-(3-anilino-6,6-dimethyl-4-oxo-4,5,6,7-tetrahydro-1H-pyrrolo[3,2-c]pyridin-2-yl)pyridin-2-yl]-2-(4-fluorophenyl)propanamide] |  | 51.7 nM | 4.59 nM |  | 10.5 nM
CN(C)CCC(C(=O)Nc1cc(-c2[nH]c3c(c2Nc2ccccc2)C(=O)N(C)CC3)ccn1)c1ccccc1 (centres unmarked) [Example 38, N-[4-(3-anilino-5-methyl-4-oxo-4,5,6,7-tetrahydro-1H-pyrrolo[3,2-c]pyridin-2-yl)pyridin-2-yl]-4-(dimethylamino)-2-phenylbutanamide] |  | 1290 nM | 14.6 nM | 6690 nM | 
